System: HSD-fed rats
Assay: In vivo efficacy study in HSD-fed steatosis rats: histopathological examination
Conditions: 30 mg/kg; for degeneration in renal tubule epithelium / fattening in the parenchyma cells of pancreas tissues / degeneration in hepatocytes in liver tissues / steatosis in hepatocytes in liver tissues: HSD 3w group: severe; for degeneration in hepatocytes in liver tissues / steatosis in hepatocytes in liver tissues: FIG. 3
Excerpt: In vivo efficacy studies. After 1-week acclimation period, rats were randomly separated into two groups: control group (n=5) and high sucrose group (n=20). The control group was fed with a standard diet while the others consumed high sucrose diet (HSD). Sucrose was purchased from Sigma Chemical Co. (St Louis, MO, USA) and supplied at the dose of 10% in the drink water for two weeks.
After 2 weeks, five rats in the HSD group were randomly sacrificed for conformation of NAFLD model. Then, the remaining rats in the HSD group were separated into three sub-groups (n=5): HSD group, HSD plus BX-912 group and HSD plus JNK-IN-5A group. BX-912 and JNK-IN-5A were dissolved in DMSO and were orally administrated using oral gavage for one week (30 mg/kg/day). The HSD group were treated with vehicle solution only.
At the end of the experiment, rats were sacrificed after being anesthetized. Blood samples were collected from the abdominal aorta and centrifuged at 8000 rpm for 15 min at 4° C. The plasma was separated and stored at −80° C. until further analysis. Other internal organs, including the heart, adipose tissues, liver, kidney, muscle, intestine (duodenum, ileum, jejunum), pancreas, colon and stomach were immediately removed and then snap frozen in liquid nitrogen and stored at −80° C.; the liver was also fixed in 10% formaldehyde for histopathological examination.
Histopathological examination. The liver tissues were fixed in 10% buffered formaldehyde solution. After fixation, the tissues were passed through graded alcohol and xylene series and embedded in paraffin blocks. 5 micrometer thick sections were taken serially from the paraffin blocks. Histopathological changes were evaluated by performing hematoxylin eosin staining on the sections taken. Sections were evaluated according to histopathological findings as none (−), mild (+), moderate (++) and severe (+++).
Next, the efficacy of these two drugs in a steatosis rat study was investigated by feeding the animals with HSD. Five groups of 12-week-old rats (n=5) were raised. For two weeks, the first group was fed with CHOW and the remaining four groups were fed with HSD. […] One of the remaining groups was fed with HSD (HSD 3w) for seven days. Another one of the remaining groups was fed with HSD plus BX-912 (30 mg/kg) for seven days. The last one of the remaining groups was fed with HSD plus JNK-IN-5A (30 mg/kg) for seven days. After said seven days, all three groups were sacrificed, and tissue samples from the liver and other major organs and blood samples were collected for efficacy examination. A histopathological and immunohistochemical analysis was performed on the liver samples and other major organs obtained from the three rat groups.

Row | Structure (SMILES) | toxic effect on small intestine, large intestine, stomach, heart and muscle tissues (HSD-fed rats, 7 days) | degeneration in renal tubule epithelium (HSD-fed rats, 7 days) | fattening in the parenchyma cells of pancreas tissues (HSD-fed rats, 7 days) | degeneration in hepatocytes in liver tissues (HSD-fed rats, 7 days) | steatosis in hepatocytes in liver tissues (HSD-fed rats, 7 days) | toxic effect on small intestine, large intestine, stomach, heart and muscle tissues (rat, in vivo)
1 | N#Cc1c(NC(=O)c2cccc3ccccc23)sc2c1CCCC2 [JNK-IN-5A, N-(3-cyano-4,5,6,7-tetrahydrobenzo [b]thien-2-yl)-1-naphthalenecarboxamide] | no toxic effect | mild | mild | mild | mild | 
2 | O=C(Nc1cccc(Nc2ncc(Br)c(NCCc3cnc[nH]3)n2)c1)N1CCCC1 [BX-912, N-[3-[[5-bromo-4-[[2-(1H-imidazol-5-yl)ethyl]amino]-2-pyrimidinyl]amino]phenyl]-1-pyrrolidinecarboxamide] |  | mild | mild | Mild | moderate | no toxic effect
